Measurements: patent publication US4758574A, “2-phenylimidazio (4,5-c) pyridines” (Eli Lilly and Company, priority 1986, dated 1988)
Counter-ions that a name gives are not always drawn. Like-named read-outs stand apart in the source and are kept apart here.

Columns and labels:
Cat Papillary Muscles = assay: Positive Inotropic Activity in Isolated Cat Papillary Muscles; assay type: cell-based; conditions: Felis catus, control = 100 percent, read-out: Contractility of Papillary Muscle (peak response); for activity at 100 µM: Drug Concentration 10^-4 M; for activity at 10 µM: Drug Concentration 10^-5 M
Method: Positive Inotropic Activity in Isolated Cat Papillary Muscles […] A platinum hook secured one end of the muscle to an electrode mounted in the bottom of the bath, and a silk thread attached the tendon to a Statham isometric transducer. The baths contained Krebs-Henseleit solution (36° C., bubbled with 95 percent oxygen--5 percent carbon dioxide) of the following millimolar composition: NaCl, 118; KCl, 4.5; CaCl2, 2.5; KH2 PO4, 1.1; MgSO4, 1.2; NaHCO3, 25; and glucose, 11. A base-line tension of 1.5 g. was applied to each muscle. Square-wave pulses (5.0 msec. in duration, three times threshold voltage) delivered through the hook electrode and a second electrode positioned near the top of the muscle evoked 12 contractions/minute, which were recorded on a Grass polygraph. After the muscles had equilibrated for 60 minutes, the recorder gain was adjusted so that the pen deflected 10 mm. The drug was introduced in a solution of normal saline in an amount to bring the final concentration of the drug to 10^-5 or 10^-4 molar. Increases in contractility were tabulated as millimeters of pen deflection in excess of the baseline value. In each experiment the maximum contractility was measured. Test results are summarized in Table I and are expressed as percent of control (control=100 percent). Values are the average of results from 2 to 8 muscles.

[1] = tested on: Ventricular Contractility in the Anesthetized Dog; assay: Ventricular Contractility in the Anesthetized Dog; assay type: in vivo, Mongrel dogs; conditions: Canis lupus familiaris, iv, i.v. bolus, read-out: ED50 (dose required to produce a peak increase in contractility of 50%)
Method: Experiments in Anesthetized Dogs Mongrel dogs of either sex ranging in weight from 7 to 14 kg. wer used. Anesthesia was induced with sodium pentobarbital (30 mg./kg., i.v.) and maintained with supplemental doses as required. A positive-pressure pump was used to ventilate the dogs through an endotracheal tube (18 strokes/minute, 20 ml./kg. stroke^-1), and a heating pad kept the body temperature at 37°-38° C. Femoral arterial blood pressure was measured through a polyethylene catheter filled with heparin solution (16 units/ml.) and connected to a Statham pressure transducer. A strain-gauge arch sutured to the right ventricle of the heart measured cardiac contractility. Tension on the gauge was adjusted to 50 g. and the gain of the recorder (Beckman dynograph) was set so that 50 g. caused a 10-mm. pen deflection; cardiac contractile tension was measured as millimeters of pen deflection or grams of tension. The drug was administered following a 30-45 minute equilibrium period as an i.v. bolus (2-5 ml.) in a normal saline vehicle. […] The maximum effects on contractility at various dose levels were determined and plotted and the dose required to produce a 50% increase in contractility (ED50) was determined by interpolation.

[2] = tested on: SRS-A release, guinea pig lung; assay: Inhibition of SRS-A (Slow-Reacting Substance of Anaphylaxis) From Guinea Pig Lung; assay type: cell-based; conditions: Cavia porcellus, sensitized guinea pig lung, ovalbumin antigen, read-out: percent inhibition of SRS-A release
Method: Inhibition of SRS-A (Slow-Reacting Substance of Anaphylaxis) From Guinea Pig Lung
Male, Hartley guinea pigs, usually 1-2 weeks old, were sensitized with respect to ovalbumin by intraperitoneal administration of 0.15 ml. hyperimmune serum obtained from guinea pigs actively sensitized against ovalbumin. After 2 days or more, the animals were decapitated, lungs were excised and perfused through the pulmonary artery with Krebs' bicarbonate solution of the following composition in mmoles/liter: KCl, 4.6; CaCl2.2 H2 O, 1.8; KH2 PO4, 1.2; MgSO4.7H2 O, 1.2; NaCl, 118.2; NaHCO3, 24.8; and dextrose, 10.0. Poorly perfused and bloody areas were discarded. Normal lung was cut into 1 mm. cubes with a McIlwain tissue chopper, washed with Krebs' solution and divided into 400 mg. aliquots. The fragmented tissue was then incubated at 37° C. for 15 minutes in Krebs' solution containing indomethacin to optimize SRS-A release and an appropriate concentration of experimental drug. Antigen (ovalbumin) was then added to make a final concentration of 1×10^-5 g./ml. Fifteen minutes later, the incubation medium was decanted and centrifuged at 3,000×g at 4° C. for 5 minutes. […] Release of SRS-A in the presence of the experimental drug was compared to a control sample and the results expressed as percent inhibition of SRS-A release.

Compound | activity at 100 µM (Cat Papillary Muscles) [%] | activity at 10 µM (Cat Papillary Muscles) [%] | ED50 ([1]; tested as the hydrochloride salt) [mg/kg] | inhibition at 100 µM ([2]; 1×10^-4 M) [%] | inhibition at 10 µM ([2]; 1×10^-5 M) [%] | ED50 [1] [mg/kg]
c1ccc(-c2nc3cnccc3[nH]2)cc1 [Example 7, 2-Phenylimidazo[4,5-c]pyridine] | 192 | 107 | 2.5 | – | – | –
COc1ccc(-c2nc3cnccc3[nH]2)c(OC)c1 [Example 8, 2-(2,4-Dimethoxyphenyl)imidazo[4,5-c]pyridine hydrochloride] | 172 | 158 | – | 45.1 | 19.4 | 0.27
CSc1ccc(-c2nc3cnccc3[nH]2)cc1.Cl [Example 9, 2-(4-methylmercaptophenyl)imidazo[4,5-c]pyridine hydrochloride] | 205 | 113 | – | – | – | 4
CCOc1ccc(-c2nc3cnccc3[nH]2)cc1.Cl [Example 13, 2-(4-ethoxyphenyl)imidazo[4,5-c]pyridine hydrochloride] | 157 | 104 | – | – | – | 2.5
COc1ccc(-c2nc3cnccc3[nH]2)cc1.Cl [Example 15, 2-(4-methoxyphenyl)imidazo[4,5-c]pyridine hydrochloride] | 204 | 104 | – | – | – | 1.7
COc1cc(SC)ccc1-c1nc2cnccc2[nH]1.Cl [Example 23, 2-(2-methoxy-4-methylmercaptophenyl)imidazo[4,5-c]pyridine hydrochloride] | 142 | 141 | – | – | – | 0.21
Cc1ccc(-c2nc3cnccc3[nH]2)c(C)c1 [Example 24, 2-(2,4-dimethylphenyl)imidazo[4,5-c]pyridine hydrochloride] | 94 | 87 | – | – | – | 1.4
Cc1ccccc1-c1nc2cnccc2[nH]1 [Example 26, 2-(2-methylphenyl)imidazo[4,5-c]pyridine hydrochloride] | 188 | 106 | – | – | – | 2.2
COc1cc([S+](C)[O-])ccc1-c1nc2cnccc2[nH]1 (centres unmarked) [Example 27, 2-(2-methoxy-4-methylsulfinylphenyl)imidazo[4,5-c]pyridine] | 200 | 245 | – | – | – | 0.03
CCCOc1cc(OC)ccc1-c1nc2cnccc2[nH]1 [Example 29, 2-(2-n-propoxy-4-methoxyphenyl)imidazo[4,5-c]pyridine] | 335 | 134 | – | – | – | 1.3
COc1ccc(-c2nc3cnccc3[nH]2)c(OCCSC)c1 [Example 39, 2-[2-(β-methylmercaptoethoxy)-4-methoxyphenyl]imidazo[4,5-c]pyridine] | 140 | 118 | – | – | – | 1.1
CCSCCOc1cc(OC)ccc1-c1nc2cnccc2[nH]1.Cl [Example 45, 2-[2-(β-ethylmercaptoethoxy)-4-methoxyphenyl]imidazo[4,5-c]pyridine h ydrochloride] | 125 | 122 | – | – | – | 1
Clc1ccc(-c2nc3cnccc3[nH]2)c(Cl)c1 [Example 47, 2-(2,4-dichlorophenyl)imidazo[4,5-c]pyridine] | 157 | 105 | – | – | – | 0.67
COc1cc(S(C)(=O)=O)ccc1-c1nc2cnccc2[nH]1 [Example 50, 2-(2-methoxy-4-methylsulfonylphenyl)imidazo[4,5-c]pyridine] | 221 | 176 | – | – | – | 0.02
COc1ccc(-c2nc3cnccc3[nH]2)c(OCC[S+](C)[O-])c1 (stereo not drawn) [Example 52, 2-[2-(β-methylsulfinylethoxy)-4-methoxyphenyl]imidazo[4,5-c]pyridine] | 185 | 122 | – | – | – | 5.2
CCCOc1cc([S+](C)[O-])ccc1-c1nc2cnccc2[nH]1 (centres unmarked) [Example 54, 2-(2-n-propoxy-4-methylsulfinylphenyl)imidazo[4,5-c]pyridine] | 159 | 122 | – | – | – | 1
COc1ccc(-c2nc3cnccc3[nH]2)cc1OC.Cl [Example 56, 2-(3,4-dimethoxyphenyl)imidazo[4,5-c]pyridine hydrochloride] | 252 | 163 | – | – | – | 0.38
COc1cc(C(F)(F)F)ccc1-c1nc2cnccc2[nH]1.Cl [Example 59, 2-(2-Methoxy-4-trifluoromethylphenyl)imidazo[4,5-c]pyridine hydrochloride] | 134 | 139 | – | – | – | 0.005
COc1cc([N+](=O)[O-])ccc1-c1nc2cnccc2[nH]1 [Example 60, 2-(2-Methoxy-4-nitrophenyl)imidazo[4,5-c]pyridine] | 145 | 142 | – | – | – | 0.015
